# Experimental data: patent US6080771A, “DC107 derivatives” (Kyowa Hakko Kogyo Co., Ltd., priority 1996, dated 2000)
# pIC50: −log10 of the molar value. Read-outs that look alike come from different tables or passages of the source.
# Key:
# [1] = test system: Staphylococcus aureus ATCC 6538P; assay: Antimicrobial activity, agar dilution method (MIC), SA; assay type: cell-based; settings: ATCC6538P, agar dilution, pH 7, read-out: MIC, SA
# From the text: | SA: Staphylococcus aureus ATCC 6538P
# [2] = test system: Bacillus substilis NO. 10707; assay: Antimicrobial activity, agar dilution method (MIC), BS; assay type: cell-based; settings: NO.10707, agar dilution, pH 7, read-out: MIC, BS
# From the text: | BS: Bacillus substilis NO. 10707
# [3] = test system: Klebisiella pneumoniae ATCC 10031; assay: Antimicrobial activity, agar dilution method (MIC), KP; assay type: cell-based; settings: agar dilution, pH 7; read-out: MIC, KP
# From the text: | KP: Klebisiella pneumoniae ATCC 10031
# [4] = test system: Escherichia coli ATCC 26; assay: Antimicrobial activity, agar dilution method (MIC), EC; assay type: cell-based
# From the text: | EC: Escherichia coli ATCC 26
# [5] = test system: HeLa S3 cells; assay: HeLa S3 cell growth inhibition test (Neutral Red); assay type: cell-based; settings: Homo sapiens, read-out: HeLa S3 Cell Growth Inhibition Activity, IC50
# Procedure: In each well of a 96-well microtiter plate was placed 0.1 mL of HeLa S3 cells having a concentration of 8×10^3 cells/mL and prepared in an MEM culture medium containing 10% fetal bovine serum and 2 mM glutamine. After the cells were incubated overnight at 37° C. in a carbon dioxide incubator, a test compound suitably diluted with a medium was added to the wells in an amount of 0.05 mL for each well. The cells were incubated at 37° C. for 72 hours in a carbon dioxide incubator. After the culture supernatant was removed, 0.1 mL of a culture medium containing 0.02% Neutral Red was added to each well. The cells were then incubated at 37° C. for 1 hour in a carbon dioxide incubator to dye the cells. After the culture supernatant was removed, each residue was rinsed once with physiological saline and the pigment was extracted with 0.001N hydrochloric acid/30% ethanol. The absorbance at 550 nm of each extract was measured with a microplate reader. The drug concentration required for the 50% inhibition of cell growth, which is referred to as IC50, was calculated by comparing the absorbance for untreated cells with those for cells treated with the drug in known concentrations.
# [6] = test system: Sarcoma 180 mouse solid tumor; assay: Antitumor activity against Sarcoma 180 mouse solid tumor; assay type: in vivo, male ddY mice; settings: Sarcoma-180, iv, 168 h, single i.v., tumor volume on day 7 from transplant, read-out: T/C (tumor volume ratio treated/control)
# Procedure: To a ddY mouse were intraperitoneally transplanted 5×10^6 sarcoma 180 cells. On the seventh day from the transplant, the cells were collected from the ascites, washed once with sterilized physiological saline, and then diluted with sterilized physiological saline to prepare a cell suspension having a concentration of 5×10^7 cells/mL. This suspension was transplanted in an amount of 0.01 mL to a subcutaneous part of the right axilla of each of male ddY mice each weighing 20±1 g.
# A test compound was dissolved in physiological saline containing polyoxyethylene sorbitan monolaurate. At 24 hours after the tumor transplant, 0.2 mL of the solution was intravenously administered to the tail of each of a group of five mice.
# [7] = test system: Enterococcus hirae ATCC 10541; settings: pH 7
# Procedure: (§1) Antimicrobial activity was determined by the agar dilution method using a culture medium (pH 7) prepared by dissolving 3 g of Bacto-Tryptone (manufactured by Difco, Co.), 3 g of meat extract, 1 g of yeast extract, 1 g of glucose, and 16 g of agar in 1 l of water.
# EH: Enterococcus hirae ATCC 10541
# [8] = test system: Enterococcus hirae ATCC 10541; assay: Antimicrobial activity, agar dilution method (MIC), EH; settings: pH 7
# Procedure: as §1
# EH: Enterococcus hirae ATCC 10541
# [9] = test system: various bacteria; settings: background, Japanese Published Unexamined Patent Application No. 112988/89; cited from earlier work
# [10] = background, Japanese Published Unexamined Patent Application No. 112988/89; cited from earlier work
# [11] = ATCC26, agar dilution, pH 7, read-out: MIC, EC
# [12] = ATCC26, pH 7, read-out: MIC, EC
Structure (SMILES),MIC [1],MIC [2],MIC [3],"pIC50 ([5]; HeLa S3, 72 hours, 37° C.)","MIC, EH [8]",other results
COCCOCCOCC(=O)OC1/C=C(\C)CCC2(CC(=O)NC(C)c3nc(cs3)/C=C\C=C\C1=O)[S+]([O-])SC(=O)C2(C)O (stereo not drawn) [Compound 2],0.13 µg/mL,0.13 µg/mL,0.23 µg/mL,7.60,–,"MIC [4, 11]: 1.8 µg/mL; response vs control in vivo at 4 mg/kg [6]: 30%; MIC, EH [7]: 0.23 µg/mL"
COCCOCCOCCOCCOCCOCC(=O)OC1/C=C(\C)CCC2(CC(=O)NC(C)c3nc(cs3)/C=C\C=C\C1=O)[S+]([O-])SC(=O)C2(C)O (stereo not drawn) [Compound 5],0.4 µg/mL,0.2 µg/mL,0.39 µg/mL,–,0.20 µg/mL,"MIC [4, 12]: 3.1 µg/mL; pIC50 ([5]; HeLa S3, 72 h): 7.17; response vs control in vivo at 8 mg/kg [6]: 30%"
COCCOCC(=O)OC1/C=C(\C)CCC2(C(C)(O)C(=O)SCc3oc(=O)oc3C)CC(=O)N(C(C)c3nc(cs3)/C=C\C=C\C1=O)[S+]2[O-] (stereo not drawn) [Compound 11],–,–,–,7.52,–,–
COCCOCCOCC(=O)OC1/C=C(\C)CCC2(C(C)(O)C(=O)SCc3oc(=O)oc3C)CC(=O)N(C(C)c3nc(cs3)/C=C\C=C\C1=O)[S+]2[O-] (stereo not drawn) [Compound 12],42 µg/mL,42 µg/mL,42 µg/mL,7.52,–,"MIC [4, 11]: 4.2 µg/mL; response vs control in vivo at 8 mg/kg [6]: 39%; MIC, EH [7]: 42 µg/mL"
COCCOCCOCCOCCOCC(=O)OC1/C=C(\C)CCC2(C(C)(O)C(=O)SCc3oc(=O)oc3C)CC(=O)N(C(C)c3nc(cs3)/C=C\C=C\C1=O)[S+]2[O-] (stereo not drawn) [Compound 14],5.2 µg/mL,2.6 µg/mL,–,7.46,–,"MIC, EH [7]: 2.6 µg/mL"
COCCOCCOCC(=O)OC1/C=C(\C)CCC2(C(C)(O)C(=O)SCOC(=O)CC[C@H](NC(=O)OC(C)(C)C)C(=O)OC(C)(C)C)CC(=O)N(C(C)c3nc(cs3)/C=C\C=C\C1=O)[S+]2[O-] (stereo partly drawn) [Compound 23],–,–,–,7.37,–,response vs control in vivo at 8 mg/kg [6]: 48%
COCCOCCOCCOCCOCCOCC(=O)OC1/C=C(\C)CCC2(C(C)(O)C(=O)SCOC(=O)CNC(=O)OC(C)(C)C)CC(=O)N(C(C)c3nc(cs3)/C=C\C=C\C1=O)[S+]2[O-] (stereo not drawn) [Compound 24],–,–,–,7.68,–,–
COCCOCC(=O)OCCOCCOCC(=O)OC1/C=C(\C)CCC2(CC(=O)NC(C)c3nc(cs3)/C=C\C=C\C1=O)[S+]([O-])SC(=O)C2(C)O (stereo not drawn) [Compound 31],0.11 µg/mL,0.057 µg/mL,0.057 µg/mL,–,0.11 µg/mL,"MIC [4, 12]: 3.65 µg/mL; response vs control in vivo at 8 mg/kg [6]: 12%"
C/C1=C\C(OC(=O)COCCCO)C(=O)/C=C/C=C\c2csc(n2)C(C)NC(=O)CC2(CC1)[S+]([O-])SC(=O)C2(C)O (stereo not drawn) [Compound 33],0.13 µg/mL,0.065 µg/mL,0.13 µg/mL,–,0.065 µg/mL,"MIC [4, 11]: 1 µg/mL; response vs control in vivo at 2 mg/kg ([6]; 2.0 mg/kg): 36%"
C/C1=C\C(OC(=O)COCCCCO)C(=O)/C=C/C=C\c2csc(n2)C(C)NC(=O)CC2(CC1)[S+]([O-])SC(=O)C2(C)O (stereo not drawn) [Compound 35],0.098 µg/mL,0.2 µg/mL,0.098 µg/mL,–,0.098 µg/mL,"MIC [4, 12]: 1.6 µg/mL; response vs control in vivo at 4 mg/kg [6]: 22%"
COCCOCCOCC(=O)OCCOCCOCCOCCOCC(=O)OC1/C=C(\C)CCC2(C(C)(O)C(=O)SCc3oc(=O)oc3C)CC(=O)N(C(C)c3nc(cs3)/C=C\C=C\C1=O)[S+]2[O-] (stereo not drawn) [Compound 39],5.2 µg/mL,2.6 µg/mL,2.6 µg/mL,–,–,"response vs control in vivo at 16 mg/kg ([6]; 16 mg/kg): 38%; MIC, EH [7]: 1.3 µg/mL"
CC(=O)OCC1OC(OC2C=C(C)CCC3(CC(=O)NC(C)c4nc(cs4)C=CC=CC2=O)[S+]([O-])SC(=O)C3(C)O)C=CC1OC(C)=O (stereo not drawn) [Compound 50],0.02 µg/mL,0.02 µg/mL,0.16 µg/mL,8.46,0.020 µg/mL,"MIC [4, 11]: 0.16 µg/mL"
CC(=O)OC[C@H]1OC(OC2/C=C(\C)CCC3(CC(=O)NC(C)c4nc(cs4)/C=C\C=C\C2=O)[S+]([O-])SC(=O)C3(C)O)C[C@@H](OC(C)=O)[C@@H]1OC(C)=O (stereo partly drawn) [Compound 53],0.098 µg/mL,0.098 µg/mL,1.6 µg/mL,–,0.20 µg/mL,"MIC [4, 12]: 25 µg/mL; pIC50 ([5]; HeLa S3, 72 h): 7.80"
CC(=O)O[C@@H]1C=CC(OC2/C=C(\C)CCC3(CC(=O)NC(C)c4nc(cs4)/C=C\C=C\C2=O)[S+]([O-])SC(=O)C3(C)O)O[C@H]1C (stereo partly drawn) [Compound 57],0.13 µg/mL,0.033 µg/mL,0.26 µg/mL,–,0.13 µg/mL,"MIC [4, 12]: 0.52 µg/mL; pIC50 ([5]; HeLa S3, 72 h): 7.80"
CC(=O)O[C@H]1[C@H](C)OC(OC2/C=C(\C)CCC3(C(C)(O)C(=O)SCc4oc(=O)oc4C)CC(=O)N(C(C)c4nc(cs4)/C=C\C=C\C2=O)[S+]3[O-])C[C@@H]1OC(C)=O (stereo partly drawn) [Compound 66],–,–,–,8.21,–,response vs control in vivo at 4 mg/kg [6]: 47%
CC(=O)O[C@@H]1C=CC(OC2/C=C(\C)CCC3(C(C)(O)C(=O)SCc4oc(=O)oc4C)CC(=O)N(C(C)c4nc(cs4)/C=C\C=C\C2=O)[S+]3[O-])O[C@H]1C (stereo partly drawn) [Compound 69],–,–,–,8.49,–,–
C/C1=C\C(O)C(=O)/C=C/C=C\c2csc(n2)C(C)NC(=O)CC2(CC1)[S+]([O-])SC(=O)C2(C)O (stereo not drawn) [DC107],–,–,–,–,–,antimicrobial activity [9]: antimicrobial activity against various bacteria; antitumor activity [10]: antitumor activity
